The record followed here is patent US20260226065A1, “SUBSTITUTED BENZENE COMPOUND” (DAIICHI SANKYO COMPANY, LIMITED, priority 2023, published 2026).

The target of the test is T1, NLRP3 inflammasome (Homo sapiens, UniProt Q96P20).
T1 construct: endogenous in cells; host or cells: THP-1 (human monocyte-derived), PMA-differentiated, Nigericin-stimulated
Put plainly: In vitro IL-1β production test (PMA-differentiated THP-1 cells, Nigericin stimulation, AlphaLISA). Type of test: cell-based. As to conditions: inhibition of IL-1β production; THP-1 cells differentiated with 200 nM PMA; 0.015 mM Nigericin; 2 hours. How it is done:
Human monocyte-derived THP-1 cells were cultured for one day in 10% bovine serum-containing RPMI-1640 medium (Thermo #A10491-01) supplemented with 200 nM phorbol 12-myristate 13-acetate (PMA, Sigma #P8139) to induce differentiation.
NLRP3 inflammasome was induced by replacing the culture medium with bovine serum-free RPMI-1640 medium supplemented with 0.015 mM Nigericin (Sigma #SML1779) and the test compound of known concentrations.
After 2 hours, the culture medium supernatant was collected and the IL-1β protein concentration was measured using the AlphaLISA (registered trademark) assay (PerkinElmer #AL220C).
The IL-1β concentration without the addition of the test compound and with Nigericin stimulation was set as 0% inhibitory activity, and the IL-1β concentration without Nigericin stimulation was set as 100% inhibitory activity, and the inhibition rate (% inhibition) of the test compound at each added concentration was calculated.
The % inhibition value was subjected to sigmoid fitting using a logistic regression model to calculate the 50% inhibitory concentration (IC50 value).
A general note: Bead proximity is the source of the signal in Alpha formats.

Counter-ions that a name gives are not always drawn.

T1 sequence (Q96P20 whole entry): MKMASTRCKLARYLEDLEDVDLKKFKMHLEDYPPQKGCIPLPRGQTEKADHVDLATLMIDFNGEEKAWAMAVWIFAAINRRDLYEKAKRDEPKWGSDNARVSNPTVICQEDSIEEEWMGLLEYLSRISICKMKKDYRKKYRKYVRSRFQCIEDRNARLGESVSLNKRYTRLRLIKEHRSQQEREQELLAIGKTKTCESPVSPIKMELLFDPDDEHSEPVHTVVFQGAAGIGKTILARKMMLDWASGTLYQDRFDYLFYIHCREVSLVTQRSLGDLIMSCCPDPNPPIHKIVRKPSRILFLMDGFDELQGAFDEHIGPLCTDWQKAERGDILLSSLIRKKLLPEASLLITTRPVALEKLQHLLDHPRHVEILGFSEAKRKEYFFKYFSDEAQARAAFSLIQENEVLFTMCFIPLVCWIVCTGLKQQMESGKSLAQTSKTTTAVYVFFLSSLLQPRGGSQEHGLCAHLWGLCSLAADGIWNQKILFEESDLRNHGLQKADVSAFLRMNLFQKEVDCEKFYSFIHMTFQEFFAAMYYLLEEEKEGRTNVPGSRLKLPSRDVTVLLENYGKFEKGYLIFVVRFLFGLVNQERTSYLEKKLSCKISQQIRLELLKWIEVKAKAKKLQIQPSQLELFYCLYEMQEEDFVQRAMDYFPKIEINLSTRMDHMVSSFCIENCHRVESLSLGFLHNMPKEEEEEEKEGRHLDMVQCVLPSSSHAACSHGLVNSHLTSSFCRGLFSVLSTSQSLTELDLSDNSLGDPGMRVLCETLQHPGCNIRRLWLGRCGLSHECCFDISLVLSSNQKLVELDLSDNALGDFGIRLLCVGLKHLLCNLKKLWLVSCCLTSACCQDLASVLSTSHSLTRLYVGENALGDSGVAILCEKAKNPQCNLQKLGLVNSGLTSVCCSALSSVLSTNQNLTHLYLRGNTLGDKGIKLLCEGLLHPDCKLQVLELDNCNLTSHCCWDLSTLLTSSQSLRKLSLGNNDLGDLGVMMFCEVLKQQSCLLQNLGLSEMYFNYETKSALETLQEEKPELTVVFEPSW

As to `Cc1cc(C)c(-c2cc3c(C)cn([C@H]4C[C@@](C)(O)C4)c3nn2)c(O)c1` [Example 90, 2-{7-[(1s,3s)-3-hydroxy-3-methylcyclobutyl]-5-methyl-7H-pyrrolo[2,3-c]pyridazin-3-yl}-3,5-dimethylphenol], half-maximal inhibition (IC50) required 56.5 nM.

Consider `COc1cn([C@H]2C[C@@](C)(O)C2)c2nnc(-c3c(C)cc(OC(F)F)cc3O)cc12` [Example 72, 5-(difluoromethoxy)-2-{7-[(1s,3s)-3-hydroxy-3-methylcyclobutyl]-5-methoxy-7H-pyrrolo[2,3-c]pyridazin-3-yl}-3-methylphenol], for which the midpoint of inhibition, the IC50, lay at 53.1 nM.

With `Cc1cc(C(F)(F)F)cc(O)c1-c1cc2cc(C)n([C@H]3C[C@@](C)(O)C3)c2nn1` [Example 87, 2-{7-[(1s,3s)-3-hydroxy-3-methylcyclobutyl]-6-methyl-7H-pyrrolo[2,3-c]pyridazin-3-yl}-3-methyl-5-(trifluoromethyl)phenol], the IC50 was 40.1 nM.

The molecule `CCN1CC2(O)CC(n3cc(C)c4cc(-c5c(C)cc(C(F)(F)F)cc5O)nnc43)(C1)C2` [Example 75, 3-ethyl-5-{3-[2-hydroxy-6-methyl-4-(trifluoromethyl)phenyl]-5-methyl-7H-pyrrolo[2,3-c]pyridazin-7-yl}-3-azabicyclo[3.1.1]heptan-1-ol] had an IC50 of 98.4 nM.

As to `Cc1cc(C(F)(F)F)cc(O)c1-c1cc2c(C(F)(F)F)cn([C@H]3C[C@@](C)(O)C3)c2nn1` [Example 59, 2-{7-[(1s,3s)-3-hydroxy-3-methylcyclobutyl]-5-(trifluoromethyl)-7H-pyrrolo[2,3-c]pyridazin-3-yl}-3-methyl-5-(trifluoromethyl)phenol], the IC50 was found to be 95.8 nM.

`Cc1c(-c2ccc3c(c2O)CCC3)nnc2c1ccn2[C@H]1C[C@@](C)(O)C1` [Example 41, 5-{7-[(1s,3s)-3-hydroxy-3-methylcyclobutyl]-4-methyl-7H-pyrrolo[2,3-c]pyridazin-3-yl}-2,3-dihydro-1H-inden-4-ol] came in with an IC50 of 77.5 nM.

For the molecule `Cc1cc(C(F)(F)F)cc(O)c1-c1cc2c(nn1)N([C@H]1C[C@@](C)(O)C1)CC2` [Example 40, 2-{7-[(1s,3s)-3-hydroxy-3-methylcyclobutyl]-6,7-dihydro-5H-pyrrolo[2,3-c]pyridazin-3-yl}-3-methyl-5-(trifluoromethyl)phenol monohydrochloride], the IC50 was determined as 162 nM.

`Cc1cc(C(F)(F)F)cc(O)c1-c1cc2c(nn1)N([C@@H]1CCCN(C)C1)CC2` [Example 1, 3-methyl-2-{7-[(3R)-1-methylpiperidin-3-yl]-6,7-dihydro-5H-pyrrolo[2,3-c]pyridazin-3-yl}-5-(trifluoromethyl)phenol]: half-maximal inhibition (IC50) was put at 5.27 nM.

On to `Cc1cc(C(F)(F)F)cc(O)c1-c1cc2c(nn1)N([C@@H]1CCCN(CC3CC3)C1)CC2` [Example 61, 2-{7-[(3R)-1-(cyclopropylmethyl)piperidin-3-yl]-6,7-dihydro-5H-pyrrolo[2,3-c]pyridazin-3-yl}-3-methyl-5-(trifluoromethyl)phenol], for which half-maximal inhibition (IC50) required 25.3 nM.

Molecule `Cc1cc(C(F)(F)F)cc(O)c1-c1cc2c3c(n([C@H]4C[C@@](C)(O)C4)c2nn1)CCO3` [Example 83, 2-{8-[(1s,3s)-3-hydroxy-3-methylcyclobutyl]-7,8-dihydro-6H-furo[2′,3′:4,5]pyrrolo[2,3-c]pyridazin-3-yl}-3-methyl-5-(trifluoromethyl)phenol] had an IC50 of 9.16 nM.

In the case of `COc1cn(C23CCCC(O)(C2)C3)c2nnc(-c3c(C)cc(C(F)(F)F)cc3O)cc12` [Example 24, 5-{3-[2-hydroxy-6-methyl-4-(trifluoromethyl)phenyl]-5-methoxy-7H-pyrrolo[2,3-c]pyridazin-7-yl}bicyclo[3.1.1]heptan-1-ol], the IC50 turned out to be 34.8 nM.

Molecule `Cc1cc(C(F)(F)F)cc(O)c1-c1cc2c(nn1)N([C@@H]1CCCN(C)C1)C[C@@H]2C` (single isomer, unassigned) [Example 34, 3-methyl-2-{(5R or 5S)-5-methyl-7-[(3R)-1-methylpiperidin-3-yl]-6,7-dihydro-5H-pyrrolo[2,3-c]pyridazin-3-yl}-5-(trifluoromethyl)phenol] returned an IC50 of 9.07 nM.

Turning to `Cc1cc(C(F)(F)F)cc(O)c1-c1cc2cccc([C@@H]3CCCN(C)C3)c2nn1` (single isomer, unassigned) [Example 96, 3-methyl-2-{8-[(3R or 3S)-1-methylpiperidin-3-yl]cinnolin-3-yl}-5-(trifluoromethyl)phenol], it took 11.5 nM to reach half-maximal inhibition (IC50).

In turn, `Cc1cc(C(F)(F)F)cc(O)c1-c1cc2ncn([C@@H]3CCCN(C)C3)c2nn1` [Example 32, 3-methyl-2-{7-[(3R)-1-methylpiperidin-3-yl]-7H-imidazo[4,5-c]pyridazin-3-yl}-5-(trifluoromethyl)phenol] registered an IC50 of 30.6 nM.

`Cc1cc(C(F)(F)F)cc(O)c1-c1cc2c(C#N)cn(C34CCCC(O)(C3)C4)c2nn1` [Example 16, 7-(5-hydroxybicyclo[3.1.1]heptan-1-yl)-3-[2-hydroxy-6-methyl-4-(trifluoromethyl)phenyl]-7H-pyrrolo[2,3-c]pyridazine-5-carbonitrile] showed an IC50 of 8.6 nM.

As to `Cc1cc(C(F)(F)F)cc(O)c1-c1cc2c(nn1)N([C@@H]1CCCN(C)C1)CCC2` [Example 36, 3-methyl-2-{8-[(3R)-1-methylpiperidin-3-yl]-5,6,7,8-tetrahydropyrido[2,3-c]pyridazin-3-yl}-5-(trifluoromethyl)phenol], it took 42.1 nM to reach half-maximal inhibition (IC50).

`Cc1cc(Cl)cc(O)c1-c1cc2c(OC(F)F)cn([C@H]3C[C@@](C)(O)C3)c2nn1` [Example 29, 5-chloro-2-{5-(difluoromethoxy)-7-[(1s,3s)-3-hydroxy-3-methylcyclobutyl]-7H-pyrrolo[2,3-c]pyridazin-3-yl}-3-methylphenol] gave an IC50 of 12.4 nM.

As to `Cc1cc(C(F)(F)F)cc(O)c1-c1cc2c(C)cn([C@@H]3CCC[C@@H](O)C3)c2nn1` [Example 54, 2-{7-[(1R,3R)-3-hydroxycyclohexyl]-5-methyl-7H-pyrrolo[2,3-c]pyridazin-3-yl}-3-methyl-5-(trifluoromethyl)phenol], the 50% inhibitory concentration (IC50) was determined as 84.3 nM.

On to `CCN1CCC[C@@H](c2cccc3cc(-c4c(C)cc(C(F)(F)F)cc4O)nnc23)C1` (single isomer, unassigned) [Example 97, 2-{8-[(3R or 3S)-1-ethylpiperidin-3-yl]cinnolin-3-yl}-3-methyl-5-(trifluoromethyl)phenol], for which the IC50 is 8.33 nM.

For the molecule `Cc1cc(C(F)(F)F)cc(O)c1-c1cc2c(nn1)N([C@@H]1C[C@@H](F)CN(C)C1)CC2` [Example 60, 2-{7-[(3R,5R)-5-fluoro-1-methylpiperidin-3-yl]-6,7-dihydro-5H-pyrrolo[2,3-c]pyridazin-3-yl}-3-methyl-5-(trifluoromethyl)phenol], 74.8 nM corresponded to half-maximal inhibition (IC50).

Turning to `CCN1CCC[C@@H](N2CCc3cc(-c4c(C)cc(OC(F)(F)F)cc4O)nnc32)C1` [Example 23, 2-{7-[(3R)-1-ethylpiperidin-3-yl]-6,7-dihydro-5H-pyrrolo[2,3-c]pyridazin-3-yl}-3-methyl-5-(trifluoromethoxy) phenol], the 50% inhibitory concentration (IC50) came out at 11.8 nM.

The molecule `Cc1cc(C(F)(F)F)cc(O)c1-c1cc2c(nn1)N([C@@H]1CCCN(C(C)C)C1)CC2` [Example 15, 3-methyl-2-{7-[(3R)-1-(propan-2-yl)piperidin-3-yl]-6,7-dihydro-5H-pyrrolo[2,3-c]pyridazin-3-yl}-5-(trifluoromethyl)phenol] returned an IC50 of 4.86 nM.

The IC50 is the concentration that gives 50% inhibition. Read a low IC50 as higher potency.
